In US9919019B2, “Use of essential oil of oregano or of rosewood, or constituents thereof, in the cosmetic treatment of keratoses” (L'Oreal, priority 2010, dated 2018):

System: A431 cells
Experiment: Annexin V/propidium iodide (AV/PI) apoptosis test in A431 cells
Assay type: cell-based, human
Details: for death by targeted apoptosis of mutated cancer cells / cytotoxic efficacy compared with complex essential oils: 12 h; for death by targeted apoptosis of mutated cancer cells: A431 versus HEK001, concentrations equal to those present in the EO treatments (linalool 320 nL/mL, carvacrol 60 nL/mL, thymol 30 nL/mL); for cytotoxic efficacy compared with complex essential oils: equivalent dose; for apoptotic A431 cells: 12 h of treatment
Experimental: These three molecules were incubated for 12 h with non-mutated immortalized keratinocytes (HEK001) and mutated cancerous keratinocytes (A431). The percentage of cells in apoptosis was measured by the annexin V/propidium iodide test. The concentrations of the molecules used were equal to those present during the treatments with the essential oils. Example: the concentration of linalool used here represents the equivalent of 80% of linalool present in the essential oil of rosewood.
Thirty six hours before the treatment, the cells were distributed into a 96-well plate (5×10^5 cells/mL).
EO treatment solution: the essential oils were diluted to 1/10th a first time in 100% ethanol. Next, a second dilution was carried out in culture medium in order to obtain the desired concentrations.
The AV/PI test can be used to detect this event because of the affinity of the protein annexin V for phosphatidyl-serine. Propidium iodide, which targets DNA, can be used to distinguish early apoptotic cells from cells in late apoptosis and/or in necrosis.
After the desired treatment time, the medium was eliminated, the cells were harvested (by trypsinization), centrifuged and rinsed in 4 mL of PBS 1×. Tagging was carried out following the instructions of the manufacturer (Kit Vybrant, Molecular Probe). The cells were rapidly taken up in 100 μl of tagging buffer, to which 6 μl of annexin V and 3 μg/mL of propidium iodide per sample was added. The cells were then incubated for 30 min in the dark (at ambient temperature). Four hundred μL of tagging buffer was added before measuring the fluorescence of the annexin V (at 530 nm) and of the propidium iodide (at 610 nm).

Row | SMILES | death by targeted apoptosis of mutated cancer cells | cytotoxic efficacy compared with complex essential oils | apoptotic A431 cells (carvacrol 60 nL/mL) | apoptotic A431 cells (thymol 30 nL/mL)
1 | Cc1ccc(C(C)C)cc1O [carvacrol] | qualitatively conserved | lower than with complex essential oils | ~25% | –
2 | Cc1ccc(C(C)C)c(O)c1 [thymol] | qualitatively conserved | lower than with complex essential oils | – | approximately 15%
3 | C=CC(C)(O)CCC=C(C)C (centres unmarked) [linalool] | qualitatively conserved | lower than with complex essential oils | – | –
